Assay results reported in PMC4042160, “In silico, in vitro and cellular analysis with a kinome-wide inhibitor panel correlates cellular LRRK2 dephosphorylation to inhibitor activity on LRRK2” (Frontiers in Molecular Neuroscience, 2014).
Read-outs that look alike come from different tables or passages of the source.

Assays:
[1] = biological target: T1, full length LRRK2 protein (Homo sapiens, UniProt Q5S007); test: In vitro LRRKtide kinase assay with full length recombinant LRRK2, dose-response (IC50/pIC50); assay type: biochemical; conditions: for IC50: read-out: IC50 in vitro (lrrktide)
T1 construct: compounds were tested in triplicate with full length LRRK2 protein; made in house

LRRK2 phospho-Ser935 = biological target: T2, LRRK2 phospho-Ser935 (Homo sapiens, UniProt Q5S007); test: Cellular LRRK2 phosphoserine 935 dephosphorylation spotblot assay in SH-SY5Y cells stably expressing 3xFlag-LRRK2; assay type: cell-based; conditions: for Phosphorylation level relative to solvent (%) (cellular pS935 assay): @ 5 μM for 2 h, SH-SY5Y stably expressing LRRK2, pS935/total LRRK2; for IC50: read-out: IC50 cellular (pS935)
T2 construct: expressed in transfected cells

[2] = biological target: T3, GST-tagged truncated LRRK2 containing residues 970 to 2527 (Homo sapiens, UniProt Q5S007); test: In vitro LRRKtide peptide-substrate kinase assay, single dose testing (10 μM); assay type: biochemical; conditions: LRRKtide assay @ 10 μM inhibitor; GST-LRRK2 970-2527; 10 μM ATP; mean, N = 3; solvent control = 100%
T3 construct: GST-tagged truncated LRRK2 containing residues 970 to 2527 (Life Technologies); purchased Life Technologies

[3] = LRRKtide phosphorylation, dose-response
[4] = pS935 level as % of control, 5 μM for 2 h, SH-SY5Y cells with stable expression of LRRK2
[5] = pS935 dephosphorylation, SH-SY5Y cells with stable expression of LRRK2

T2 sequence (Q5S007 whole entry): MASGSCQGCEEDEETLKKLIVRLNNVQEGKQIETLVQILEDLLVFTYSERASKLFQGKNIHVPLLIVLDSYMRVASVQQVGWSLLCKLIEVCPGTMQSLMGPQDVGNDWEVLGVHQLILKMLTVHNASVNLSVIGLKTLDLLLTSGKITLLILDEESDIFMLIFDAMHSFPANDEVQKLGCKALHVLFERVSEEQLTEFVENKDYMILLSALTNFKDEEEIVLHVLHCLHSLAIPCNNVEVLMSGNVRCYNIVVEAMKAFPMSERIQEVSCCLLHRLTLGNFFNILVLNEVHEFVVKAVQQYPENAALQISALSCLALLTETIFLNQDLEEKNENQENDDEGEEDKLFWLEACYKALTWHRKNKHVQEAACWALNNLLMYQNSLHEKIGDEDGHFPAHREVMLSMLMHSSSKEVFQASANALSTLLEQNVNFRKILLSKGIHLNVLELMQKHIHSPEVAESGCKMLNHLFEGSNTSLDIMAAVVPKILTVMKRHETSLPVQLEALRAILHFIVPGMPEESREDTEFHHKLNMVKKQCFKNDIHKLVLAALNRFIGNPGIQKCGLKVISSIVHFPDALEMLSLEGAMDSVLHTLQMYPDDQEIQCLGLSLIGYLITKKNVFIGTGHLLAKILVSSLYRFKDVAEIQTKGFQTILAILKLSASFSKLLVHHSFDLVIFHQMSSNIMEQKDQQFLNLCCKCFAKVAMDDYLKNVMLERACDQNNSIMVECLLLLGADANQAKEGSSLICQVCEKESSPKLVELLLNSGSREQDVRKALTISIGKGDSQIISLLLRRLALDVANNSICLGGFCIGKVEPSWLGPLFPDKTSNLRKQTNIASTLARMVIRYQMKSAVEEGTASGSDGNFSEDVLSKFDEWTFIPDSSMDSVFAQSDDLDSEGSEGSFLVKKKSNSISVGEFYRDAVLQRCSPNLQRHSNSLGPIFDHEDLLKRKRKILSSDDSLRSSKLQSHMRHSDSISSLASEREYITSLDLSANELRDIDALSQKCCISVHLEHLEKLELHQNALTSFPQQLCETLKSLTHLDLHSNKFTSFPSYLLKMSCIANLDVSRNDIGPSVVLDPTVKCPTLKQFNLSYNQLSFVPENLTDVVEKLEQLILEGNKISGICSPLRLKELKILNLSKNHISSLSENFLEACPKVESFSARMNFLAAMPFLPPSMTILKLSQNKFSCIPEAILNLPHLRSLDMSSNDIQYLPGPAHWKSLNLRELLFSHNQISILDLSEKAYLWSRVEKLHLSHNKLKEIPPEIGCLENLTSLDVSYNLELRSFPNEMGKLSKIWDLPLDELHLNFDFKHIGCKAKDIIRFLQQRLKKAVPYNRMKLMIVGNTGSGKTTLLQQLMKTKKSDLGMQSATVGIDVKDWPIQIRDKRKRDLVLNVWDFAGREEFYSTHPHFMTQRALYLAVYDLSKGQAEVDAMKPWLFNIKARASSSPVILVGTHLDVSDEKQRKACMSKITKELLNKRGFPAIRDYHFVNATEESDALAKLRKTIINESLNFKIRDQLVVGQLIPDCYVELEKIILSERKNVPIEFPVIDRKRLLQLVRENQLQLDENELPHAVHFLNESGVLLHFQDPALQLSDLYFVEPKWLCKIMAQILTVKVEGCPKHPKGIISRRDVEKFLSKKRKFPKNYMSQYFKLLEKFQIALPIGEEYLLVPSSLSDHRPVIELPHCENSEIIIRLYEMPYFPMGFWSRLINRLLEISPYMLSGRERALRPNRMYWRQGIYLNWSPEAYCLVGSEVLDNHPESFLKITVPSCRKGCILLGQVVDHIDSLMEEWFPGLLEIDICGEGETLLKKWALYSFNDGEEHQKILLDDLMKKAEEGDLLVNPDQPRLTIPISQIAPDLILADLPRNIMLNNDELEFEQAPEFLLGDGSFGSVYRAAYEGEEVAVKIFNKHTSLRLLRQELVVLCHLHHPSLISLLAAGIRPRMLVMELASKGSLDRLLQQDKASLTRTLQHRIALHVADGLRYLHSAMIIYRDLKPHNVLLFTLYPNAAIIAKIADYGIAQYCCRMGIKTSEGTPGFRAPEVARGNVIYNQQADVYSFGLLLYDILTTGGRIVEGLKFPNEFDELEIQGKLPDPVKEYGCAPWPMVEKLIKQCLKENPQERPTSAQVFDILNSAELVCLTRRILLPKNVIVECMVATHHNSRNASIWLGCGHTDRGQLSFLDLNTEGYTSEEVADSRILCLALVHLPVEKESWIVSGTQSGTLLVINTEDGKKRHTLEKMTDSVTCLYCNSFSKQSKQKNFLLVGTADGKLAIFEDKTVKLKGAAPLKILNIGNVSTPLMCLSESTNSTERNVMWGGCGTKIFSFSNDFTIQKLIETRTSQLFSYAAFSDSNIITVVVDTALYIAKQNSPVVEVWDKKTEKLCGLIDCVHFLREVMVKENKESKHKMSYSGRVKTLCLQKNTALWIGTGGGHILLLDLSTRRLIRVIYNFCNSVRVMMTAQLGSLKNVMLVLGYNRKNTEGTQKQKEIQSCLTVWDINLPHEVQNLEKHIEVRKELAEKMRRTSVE
T1 sequence (Q5S007 whole entry): as above
T3 sequence (Q5S007 970-2527): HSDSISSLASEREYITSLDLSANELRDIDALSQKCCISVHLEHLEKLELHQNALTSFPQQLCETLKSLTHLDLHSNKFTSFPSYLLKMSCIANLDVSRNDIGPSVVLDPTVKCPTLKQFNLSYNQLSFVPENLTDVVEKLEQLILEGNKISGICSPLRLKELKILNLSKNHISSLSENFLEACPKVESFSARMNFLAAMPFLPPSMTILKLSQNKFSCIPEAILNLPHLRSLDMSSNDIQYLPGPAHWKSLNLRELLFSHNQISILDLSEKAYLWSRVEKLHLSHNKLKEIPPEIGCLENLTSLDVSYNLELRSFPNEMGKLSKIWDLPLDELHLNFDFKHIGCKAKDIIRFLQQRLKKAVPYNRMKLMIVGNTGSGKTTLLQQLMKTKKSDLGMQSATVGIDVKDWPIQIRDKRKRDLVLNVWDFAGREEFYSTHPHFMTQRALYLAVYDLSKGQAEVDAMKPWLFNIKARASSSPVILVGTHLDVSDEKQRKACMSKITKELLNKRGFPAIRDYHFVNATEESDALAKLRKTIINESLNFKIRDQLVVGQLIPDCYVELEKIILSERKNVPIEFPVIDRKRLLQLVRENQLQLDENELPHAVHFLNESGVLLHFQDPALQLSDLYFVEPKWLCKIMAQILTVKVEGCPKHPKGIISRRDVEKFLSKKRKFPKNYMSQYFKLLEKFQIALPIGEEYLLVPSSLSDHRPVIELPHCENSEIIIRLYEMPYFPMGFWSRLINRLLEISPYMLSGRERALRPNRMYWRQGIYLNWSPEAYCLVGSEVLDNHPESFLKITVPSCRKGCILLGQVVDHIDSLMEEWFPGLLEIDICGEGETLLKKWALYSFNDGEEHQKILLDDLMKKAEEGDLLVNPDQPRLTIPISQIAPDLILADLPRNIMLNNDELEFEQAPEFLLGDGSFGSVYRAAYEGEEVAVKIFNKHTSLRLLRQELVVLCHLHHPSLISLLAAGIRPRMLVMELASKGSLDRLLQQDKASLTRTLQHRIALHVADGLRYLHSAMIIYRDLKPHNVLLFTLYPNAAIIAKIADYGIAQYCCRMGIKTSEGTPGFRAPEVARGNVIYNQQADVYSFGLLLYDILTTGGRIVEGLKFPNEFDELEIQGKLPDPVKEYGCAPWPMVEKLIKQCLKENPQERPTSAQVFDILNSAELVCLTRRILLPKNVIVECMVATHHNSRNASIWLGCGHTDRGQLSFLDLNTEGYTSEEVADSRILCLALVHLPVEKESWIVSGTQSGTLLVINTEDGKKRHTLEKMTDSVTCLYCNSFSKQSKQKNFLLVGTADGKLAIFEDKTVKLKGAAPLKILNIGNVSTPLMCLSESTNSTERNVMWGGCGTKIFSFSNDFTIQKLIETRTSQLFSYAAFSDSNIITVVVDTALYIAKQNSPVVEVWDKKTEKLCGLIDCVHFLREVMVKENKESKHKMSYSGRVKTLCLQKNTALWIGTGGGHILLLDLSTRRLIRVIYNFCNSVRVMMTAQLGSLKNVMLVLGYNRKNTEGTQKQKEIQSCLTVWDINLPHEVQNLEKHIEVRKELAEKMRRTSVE

Molecule	pIC50 in vitro (lrrktide) [1, 3]	IC50 [1, 3] [nM]	Cellular pS935 (% @ 5 μM) (LRRK2 phospho-Ser935; [4]) [%]	% LRRKtide phosphorylation relative to solvent [2] [%]	Phosphorylation level relative to solvent (%) (cellular pS935 assay) (LRRK2 phospho-Ser935)	other results
PKR inhibitor. negative control	6.53	297	72.69	–	–	–
O=C1Nc2ccc3ncsc3c2/C1=C/c1cnc[nH]1 [PKR inhibitor]	6.44	363	29	1.18	29.00	pIC50 cellular (pS935) (LRRK2 phospho-Ser935; [5]): 5.88; IC50 (LRRK2 phospho-Ser935; [5]): 1310 nM
COc1cc(N2CCOCC2)ccc1Nc1ncc(F)c(Nc2ccccc2NS(C)(=O)=O)n1 [CZC25146]	8.75	1.78	8.62	–	–	pIC50 cellular (pS935) (LRRK2 phospho-Ser935; [5]): 7.36; IC50 (LRRK2 phospho-Ser935; [5]): 43.6 nM
COc1cc2ncnc(Nc3ccc(O)c(Br)c3)c2cc1OC [JAK3 inhibitor II]	–	1200	63.02	1.86	63.02	–
COc1cc2ncnc(Nc3cccc(Cl)c3)c2cc1OC [AG 1478]	5.43	3730	75.11	5.72	75.11	–
COc1ccc2c(c1)/C(=C/c1cnc[nH]1)C(=O)N2 [SU9516]	–	2100	94.62	2.99	94.62	–
CCn1cnc2c(Nc3cccc(Cl)c3)nc(N[C@H]3CCCC[C@H]3N)nc21 [Cdk1 inhibitor. CGP74514A]	5.46	3470	83.35	–	–	–
COc1cc(C(=O)N2CCC(N3CCN(C)CC3)CC2)ccc1Nc1ncc2c(n1)N(C)c1ccccc1C(=O)N2C [LRRK2 IN1]	–	–	–	–	–	pIC50 in vitro (lrrktide) [1]: 8.45; IC50 [1]: 3.54 nM; Cellular pS935 (% @ 5 μM) (LRRK2 phospho-Ser935): 9.32%; pIC50 cellular (pS935) (LRRK2 phospho-Ser935): 6.55; IC50 (LRRK2 phospho-Ser935): 280 nM
Syk inhibitor	6.20	632	57.29	–	–	–
O=c1cc(N2CCOCC2)oc2c1ccc1ccccc12 [DNA-PK inhibitor II]	–	–	–	86.06	81.93	–
O=C(O)/C=C/c1cc(Br)c(Br)c(Br)c1Br [Casein kinase II inhibitor III, TBCA, TBCA]	–	–	–	16.78	116.47	–
O=C1NC(=O)/C(=C/c2ccc3nccnc3c2)S1 [PI 3-Kg inhibitor]	–	–	–	62.51	79.50	–
O=c1c(-c2ccc(F)cc2)c(-c2ccncc2)[nH]n1-c1ccc(Cl)cc1 [p38 MAP kinase inhibitor]	–	–	–	132.68	93.68	–
C[S+]([O-])c1ccc(-c2nc(-c3ccncc3)c(-c3ccc(F)cc3)[nH]2)cc1 (stereo not drawn) [SB 203580]	–	–	–	100.48	90.32	–
O=C1NC(=O)c2c1c1c3ccccc3n3c1c1c2c2ccccc2n1C1CCC3O1 [SB 218078]	–	–	–	1.94	89.51	–
CCCNC(=O)Nc1ccc(Oc2ncnc3cc(OC)c(OC)cc23)cc1Cl	<5	> 10000	62.48	–	–	–
CN([C@@H](Cc1ccc(OS(=O)(=O)c2cccc3cnccc23)cc1)C(=O)N1CCN(c2ccccc2)CC1)S(=O)(=O)c1cccc2cnccc12 [KN-62]	–	–	–	17.20	84.73	–
COc1cc2c(cc1OC)-c1[nH]nc(Nc3cccc(F)c3)c1C2 [PDGF receptor tyrosine kinase inhibitor IV]	–	–	–	23.12	57.30	–
PI 3-KbInhibitor II	–	–	–	93.55	66.60	–
O=C1NC(=O)C(c2cn(CCCO)c3ncccc23)=C1c1cnccn1 [GSK-3b inhibitor XI]	–	–	–	32.34	87.77	–
COc1cc2ncc(-c3ccccc3)nc2cc1OC [AG 1296]	–	–	–	22.76	50.93	–
Oc1ccc(-c2nc(-c3ccncc3)c(-c3ccc(F)cc3)[nH]2)cc1 [SB 202190]	–	–	–	45.07	88.12	–
N#CC(C#N)=C(N)/C(C#N)=C/c1ccc(O)cc1 [AG 112]	–	–	–	77.45	60.39	–
PDK1/Akt/Flt dual pathway inhibitor	–	–	–	5.76	57.20	–
CC(C)c1nn(-c2c(Cl)cccc2Cl)c2nc(Cc3ccc(OCCO)cc3)[nH]c(=O)c12 [Cdk/Crk inhibitor]	–	–	–	54.91	97.11	–
COc1ccc(S(=O)(=O)N(CCO)c2ccccc2CN(C)C/C=C/c2ccc(Cl)cc2)cc1 [KN-93]	–	–	–	120.59	102.70	–
Nc1[nH]nc2nnc(-c3c(-c4ccccc4)nn4ccccc34)cc12 [ERK inhibitor II, FR180204, FR180204]	–	–	–	14.06	65.88	–

Second part, led by results:

pIC50 in vitro (lrrktide) [1, 3]	IC50 [1, 3] [nM]	Cellular pS935 (% @ 5 μM) (LRRK2 phospho-Ser935; [4]) [%]	% LRRKtide phosphorylation relative to solvent [2] [%]	Phosphorylation level relative to solvent (%) (cellular pS935 assay) (LRRK2 phospho-Ser935)	Molecule	other results
5.75	1790	85.53	–	–	O=C1Nc2ccccc2/C1=C1/Nc2ccccc2/C1=N\O [Indirubin-3'-monoxime]	–
6.03	936	61.51	27.12	61.51	COc1cc2ncnc(Nc3ccc(Oc4ccccc4)cc3)c2cc1OC [Src kinase inhibitor I]	–
<5	> 10000	67.43	68.24	67.43	COc1cc2ncnc(Nc3ccc(OCc4ccccc4)cc3)c2cc1OC [EGFR/ErbB-2 inhibitor]	–
5.12	7650	88.55	17.30	88.55	BPIQ-I	–
5.41	3930	76.44	7.76	76.44	CC(C)n1cnc2c(Nc3cccc(Cl)c3)nc(NCCO)nc21 [Compound 52]	–
6.16	685	101.13	2.23	101.13	O=C1Nc2ccccc2/C1=C1/Nc2ccccc2/C1=N\OCC(O)CO (stereo not drawn) [Indirubin derivative E804]	–
5.52	3010	86.56	4.52	86.56	CCOc1cc2ncnc(Nc3cccc(Br)c3)c2cc1OCC [Compound 56]	–
–	–	–	89.08	49.08	Cc1cc2ncc(-c3ccccc3)nc2cc1C [AG 1295]	–
–	–	–	94.81	121.09	Fc1ccc(-c2nc3n(c2-c2ccncc2)CCS3)cc1 [SKF-86002]	–
–	–	–	76.06	70.36	COc1ccc(OC)c2c(=S)c3ccccc3[nH]c12 [Cdk4 inhibitor II, 625987, NSC 625987]	–
–	–	–	34.30	77.68	COc1cc2nccc(Oc3ccc(NC(=S)NC(=O)c4ccccc4C)cc3)c2cc1OC [PDGF RTK inhibitor]	–
–	–	–	6.06	80.85	CNc1cc2c(Nc3cccc(Br)c3)ncnc2cn1 [PD 158780]	–
–	–	–	18.03	71.63	GTP-14564	–
–	–	–	15.36	61.54	Nc1ncnc2c1c(-c1ccc(Oc3ccccc3)cc1)cn2C1CCCC1 [Lck inhibitor]	–
–	–	–	37.41	81.30	CCN1/C(=C/C(C)=O)Sc2ccc(OC)cc21 [Cdc2-like kinase inhibitor, TG003, TG003]	–
–	–	–	100.90	84.51	Ic1cccc(CSc2nnc(-c3ccncc3)o2)c1 [GSK-3b inhibitor II]	–
–	–	–	67.41	56.68	O=C1NC(=O)c2cc(Nc3ccc(F)cc3)c(Nc3ccc(F)cc3)cc21 [PKCbII/EGFR inhibitor]	–
